In patent US7163711B2, “Crystalline α-D-glucosyl α-D-galactoside, saccharide composition comprising the same, process for producing the same, and uses thereof” (Kabushiki Kaisha Hayashibara Seibutsu Kagaku Kenkyujo, priority 2002, dated 2007):

Key:
Format in all cases: physicochemical
[1] = Moisture absorption test on amorphous α-D-glucosyl α-D-galactoside; conditions: 25° C.; for Diffraction spectrum: powdery X-ray diffraction
Experimental: The crystalline powder of α-D-glucosyl α-D-galactoside obtained in Experiment 3 was examined for crystallinity by powdery X-ray diffraction analysis by using “GEIGERFLEX RAD-IIB™”, an X-ray diffraction analyzer using Cuk α ray commercialized by Rigaku Corporation, Tokyo, Japan, to obtain a spectrum as shown in FIG. 3 having peaks with diffraction angles (2θ) of at least 13.4°, 17.4°, 19.7°, and 22.3°. Crystallinity of the crystallized powder was calculated to be about 72.5% by using “Program for Crystallinity Analysis by Ruland method”, a computer program installed in the analyzer.
(§1) A half gram aliquots of the crystalline powder of α-D-glucosyl α-D-galactoside obtained in Experiment 3 were placed in aluminum weighing cans, which had been precisely weighed in advance, and each weighing can was weighed. The weight of each weighing can was subtracted from the total weight to calculate the starting weight of the crystalline powder of α-D-glucosyl α-D-galactoside. Each weighing can with the crystalline powder of α-D-glucosyl α-D-galactoside was placed in a glass desiccator which the relative humidity was controlled to a level of 33–99% in advance, and stored at 25° C. for one to seven days while keeping at the desired humidity. After the moisture absorption test, each weighing can had been precisely weighted and calculated for increasing weight to obtain a moisture absorption level (%). In the test, the crystalline powder was macroscopically observed.
The crystalline powder of α-D-glucosyl α-D-galactoside obtained in Experiment 3 was dissolved in water to obtain an aqueous solution with a concentration of 30% (w/w). The resultant aqueous solution was frozen and dried into an amorphous powder of α-D-glucosyl α-D-galactoside. Similar as in Experiment 10, the obtained amorphous powder was placed in aluminum weighing cans, and the cans were placed in a glass desiccator which the relative humidity was controlled to a level of 43–90% in advance, and stored at 25° C. for one to seven days while keeping at the desired humidity. After the moisture absorption test, moisture absorption level (%) was calculated similarly as in Experiment 10. In the test, the appearance of each powder was macroscopically observed. Samples after a storage for seven days were confirmed for their appearance by a powdery X-ray diffraction analysis in Experiment 4, and samples with crystals were examined for their crystallinity.

[2] = Saturated concentration for water; conditions: shaken 48 hours, d.s.b.
Experimental: A surplus volume of the crystalline powder of α-D-glucosyl α-D-galactoside obtained in Experiment 3 was added to 10 ml of distilled water, shaken at 25° C. or 40° C. for 48 hours, and filtrated to collect a crystalline powder, which is more than the solubility, by using a 0.45 μm filter, followed by collecting two filtrates (saturated solutions). Moisture content of the filtrates was measured by using a desiccating agent method described in “Standard Methods of Analysis in Food Safety Regulation, Chemistry” published by Japan Food Hygiene Association under the editorship of Ministry of Health, Labor and Welfare, 1991, to examine a saturated concentration of α-D-glucosyl α-D-galactoside.

[3] = Moisture absorption test on crystalline α-D-glucosyl α-D-galactoside; conditions: 25° C.
From the text: as §1

[4] = relative humidity 43%, storage for one day
[5] = relative humidity 43%, storage for seven days
[6] = relative humidity 53%, storage for one day
[7] = relative humidity 53%, storage for seven days
[8] = relative humidity 60%, storage for one day
[9] = relative humidity 60%, storage for seven days
[10] = relative humidity 90%, storage for one day
[11] = relative humidity 90%, storage for seven days
[12] = relative humidity 33%, storage one day
[13] = relative humidity 33%, storage seven days
[14] = relative humidity 33%, storage three days
[15] = relative humidity 33%, storage two days
[16] = relative humidity 43%, storage one day
[17] = relative humidity 43%, storage seven days
[18] = relative humidity 43%, storage three days
[19] = relative humidity 43%, storage two days
[20] = relative humidity 53%, storage one day
[21] = relative humidity 53%, storage seven days
[22] = relative humidity 53%, storage three days
[23] = relative humidity 53%, storage two days
[24] = relative humidity 60%, storage one day
[25] = relative humidity 60%, storage seven days
[26] = relative humidity 60%, storage three days
[27] = relative humidity 60%, storage two days
[28] = relative humidity 75%, storage one day
[29] = relative humidity 75%, storage seven days
[30] = relative humidity 75%, storage three days
[31] = relative humidity 75%, storage two days
[32] = relative humidity 84%, storage one day
[33] = relative humidity 84%, storage seven days
[34] = relative humidity 84%, storage three days
[35] = relative humidity 84%, storage two days
[36] = relative humidity 90%, storage one day
[37] = relative humidity 90%, storage seven days
[38] = relative humidity 90%, storage three days
[39] = relative humidity 90%, storage two days

OC[C@H]1O[C@H](O[C@H]2O[C@H](CO)[C@@H](O)[C@H](O)[C@H]2O)[C@H](O)[C@@H](O)[C@H]1O [amorphous α-D-glucosyl α-D-galactoside, α-D-glucosyl α-D-galactoside]
A(%)* Moisture absorption level [1, 4]: 4.5% | Appearance (macroscopically observed) [1, 4]: Solidified | A(%)* Moisture absorption level [1, 5]: 6.3% | Appearance (macroscopically observed) [1, 5]: Solidified | Diffraction spectrum [1, 5]: Amorphous | A(%)* Moisture absorption level [1, 6]: 3.5% | Appearance (macroscopically observed) [1, 6]: Wet on the surface | A(%)* Moisture absorption level [1, 7]: 1.8% | Appearance (macroscopically observed) [1, 7]: Hardened | Crystallinity [1, 7]: 67% | Diffraction spectrum [1, 7]: Crystal monohydrate | A(%)* Moisture absorption level [1, 8]: 3.1% | Appearance (macroscopically observed) [1, 8]: Wet on the surface | A(%)* Moisture absorption level [1, 9]: 2.0% | Appearance (macroscopically observed) [1, 9]: Hardened | Crystallinity [1, 9]: 71% | Diffraction spectrum [1, 9]: Crystal monohydrate | A(%)* Moisture absorption level [1, 10]: 13.2% | Appearance (macroscopically observed) [1, 10]: Partial deliquescence | A(%)* Moisture absorption level [1, 11]: 36.2% | Appearance (macroscopically observed) [1, 11]: Deliquescence | moisture absorption (in words) ([1]; relative humidity of 43–90%, one to seven days): remarkably absorbed moisture

OC[C@H]1O[C@H](O[C@H]2O[C@H](CO)[C@@H](O)[C@H](O)[C@H]2O)[C@H](O)[C@@H](O)[C@H]1O [crystalline α-D-glucosyl α-D-galactoside, α-D-glucosyl α-D-galactoside]
saturated concentration in water ([2]; 25° C.): 68.9 % (w/w) | saturated concentration in water ([2]; 40° C.): 71.8 % (w/w) | A(%) Moisture absorption level [3, 12]: 0.0% | Appearance [3, 12]: Unchanged | A(%) Moisture absorption level [3, 13]: 0.0% | Appearance [3, 13]: Unchanged | A(%) Moisture absorption level [3, 14]: 0.0% | Appearance [3, 14]: Unchanged | A(%) Moisture absorption level [3, 15]: 0.0% | Appearance [3, 15]: Unchanged | A(%) Moisture absorption level [3, 16]: 0.0% | Appearance [3, 16]: Unchanged | A(%) Moisture absorption level [3, 17]: 0.0% | Appearance [3, 17]: Unchanged | A(%) Moisture absorption level [3, 18]: 0.0% | Appearance [3, 18]: Unchanged | A(%) Moisture absorption level [3, 19]: 0.0% | Appearance [3, 19]: Unchanged | A(%) Moisture absorption level [3, 20]: 0.0% | Appearance [3, 20]: Unchanged | A(%) Moisture absorption level [3, 21]: 0.1% | Appearance [3, 21]: Unchanged | A(%) Moisture absorption level [3, 22]: 0.0% | Appearance [3, 22]: Unchanged | A(%) Moisture absorption level [3, 23]: 0.0% | Appearance [3, 23]: Unchanged | A(%) Moisture absorption level [3, 24]: 0.1% | Appearance [3, 24]: Unchanged | A(%) Moisture absorption level [3, 25]: 0.2% | Appearance [3, 25]: Unchanged | A(%) Moisture absorption level [3, 26]: 0.1% | Appearance [3, 26]: Unchanged | A(%) Moisture absorption level [3, 27]: 0.1% | Appearance [3, 27]: Unchanged | A(%) Moisture absorption level [3, 28]: 0.1% | Appearance [3, 28]: Unchanged | A(%) Moisture absorption level [3, 29]: 0.2% | Appearance [3, 29]: Unchanged | A(%) Moisture absorption level [3, 30]: 0.1% | Appearance [3, 30]: Unchanged | A(%) Moisture absorption level [3, 31]: 0.1% | Appearance [3, 31]: Unchanged | A(%) Moisture absorption level [3, 32]: 3.2% | Appearance [3, 32]: Hardened | A(%) Moisture absorption level [3, 33]: 11.0% | Appearance [3, 33]: Hardened | A(%) Moisture absorption level [3, 34]: 6.1% | Appearance [3, 34]: Hardened | A(%) Moisture absorption level [3, 35]: 4.4% | Appearance [3, 35]: Hardened | A(%) Moisture absorption level [3, 36]: 6.9% | Appearance [3, 36]: p.d. | A(%) Moisture absorption level [3, 37]: 42.1% | Appearance [3, 37]: Deliquescence | A(%) Moisture absorption level [3, 38]: 19.2% | Appearance [3, 38]: Deliquescence | A(%) Moisture absorption level [3, 39]: 11.8% | Appearance [3, 39]: p.d. | moisture absorption (in words) ([3]; relative humidity of 75% or lower, one to seven days): did not absorb moisture
